Assay results taken from publication PMC12472391, “Borylated Five-Membered Ring Iminosugars: Synthesis, Spectroscopic Analysis, and Biological Evaluation for Glycosidase Inhibition and Anticancer Properties for Application in Boron Neutron Capture Therapy (BNCT)—Part 1” (Pharmaceuticals, 2025).

Key:
Test in all cases: Glycosidase inhibition, Table 6 (Laboratory 1)
Type in all cases: biochemical
[1] = test system: β-D-mannosidase (from snail)
Source text: (§1) The enzymes α-D-glucosidase (from yeast), β-D-glucosidases (from almond and bovine liver), α-D-galactosidase (from coffee beans), β-D-galactosidase (from bovine liver), α-D-mannosidase (from Jack bean), β-D-mannosidase (from snail), α-L-rhamnosidase (from Penicillium decumbens), α-L-fucosidase (from bovine kidney), trehalase (from porcine kidney), β-D-glucuronidases (from E. coli and bovine liver), amyloglucosidase (from A. niger), para-nitrophenyl glycosides, and various disaccharides were purchased from Sigma-Aldrich Co. (St. Louis, MO, USA).
(§2) Brush border membranes were prepared from the rat small intestine according to the method of Kessler et al., and were assayed at pH 6.8 for rat intestinal maltase using maltose. For rat intestinal maltase, porcine kidney trehalase, and A. niger amyloglucosidase activities, the reaction mixture contained maltose (25 mM) and the appropriate amount of enzyme, and the incubations were performed for 10–30 min at 37 °C. The reaction was stopped by heating at 100 °C for 3 min. After centrifugation (600× g; 10 min), the resulting reaction mixture was added to the Glucose CII-test Wako (Wako Pure Chemical Ind., Osaka, Japan). The absorbance at 505 nm was measured to determine the amount of the released D-glucose. Other glycosidase activities were determined using an appropriate para-nitrophenyl glycoside as substrate at the optimum pH of each enzyme. The reaction mixture contained the substrate (2 mM) and the appropriate amount of enzyme. The reaction was stopped by the addition of Na2CO3 (400 mM). The released para-nitrophenol was measured spectrometrically at 400 nm. All reactions run in methanol.

β-D-glucosidase (almond) = test system: β-D-glucosidase (almond)
Source text: as §1, §2

[2] = test system: β-D-glucuronidase (bovine liver)
Source text: as §1, §2

[3] = test system: α-L-rhamnosidase (from Penicillium decumbens)
Source text: as §1, §2

[4] = molecular target: T1, β-D-galactosidase (bovine liver) (Bos taurus, UniProt Q58D55)
T1 sequence (Q58D55 28-653): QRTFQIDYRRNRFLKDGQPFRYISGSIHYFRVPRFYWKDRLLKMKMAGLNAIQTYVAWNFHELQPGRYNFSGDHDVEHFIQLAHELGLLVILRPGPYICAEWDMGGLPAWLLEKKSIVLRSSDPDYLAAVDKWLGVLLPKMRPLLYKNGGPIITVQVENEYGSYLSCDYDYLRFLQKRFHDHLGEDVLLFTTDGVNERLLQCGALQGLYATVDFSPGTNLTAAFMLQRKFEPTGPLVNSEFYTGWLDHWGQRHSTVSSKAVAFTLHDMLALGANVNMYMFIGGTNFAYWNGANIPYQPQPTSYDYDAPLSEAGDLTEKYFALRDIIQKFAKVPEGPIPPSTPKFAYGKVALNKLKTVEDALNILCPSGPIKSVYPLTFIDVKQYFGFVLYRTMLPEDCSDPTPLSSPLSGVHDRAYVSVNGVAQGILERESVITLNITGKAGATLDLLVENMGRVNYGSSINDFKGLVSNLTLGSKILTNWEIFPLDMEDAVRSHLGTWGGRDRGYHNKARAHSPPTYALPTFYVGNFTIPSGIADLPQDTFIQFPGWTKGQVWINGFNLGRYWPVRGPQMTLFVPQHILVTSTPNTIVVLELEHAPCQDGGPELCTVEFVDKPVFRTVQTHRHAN
Source text: as §1, §2

[5] = test system: α-D-glucosidase (rat intestinal maltase)
Source text: as §1, §2

[6] = molecular target: T2, α-D-galactosidase (from coffee beans) (Coffea arabica, UniProt Q42656)
T2 construct: purchased Sigma-Aldrich Co
Source text: as §1, §2

[7] = molecular target: T3, α-D-mannosidase (from Jack bean) (Canavalia ensiformis, UniProt C0HJB3)
T3 construct: purchased Sigma-Aldrich Co
T3 sequence (C0HJB3 1-981): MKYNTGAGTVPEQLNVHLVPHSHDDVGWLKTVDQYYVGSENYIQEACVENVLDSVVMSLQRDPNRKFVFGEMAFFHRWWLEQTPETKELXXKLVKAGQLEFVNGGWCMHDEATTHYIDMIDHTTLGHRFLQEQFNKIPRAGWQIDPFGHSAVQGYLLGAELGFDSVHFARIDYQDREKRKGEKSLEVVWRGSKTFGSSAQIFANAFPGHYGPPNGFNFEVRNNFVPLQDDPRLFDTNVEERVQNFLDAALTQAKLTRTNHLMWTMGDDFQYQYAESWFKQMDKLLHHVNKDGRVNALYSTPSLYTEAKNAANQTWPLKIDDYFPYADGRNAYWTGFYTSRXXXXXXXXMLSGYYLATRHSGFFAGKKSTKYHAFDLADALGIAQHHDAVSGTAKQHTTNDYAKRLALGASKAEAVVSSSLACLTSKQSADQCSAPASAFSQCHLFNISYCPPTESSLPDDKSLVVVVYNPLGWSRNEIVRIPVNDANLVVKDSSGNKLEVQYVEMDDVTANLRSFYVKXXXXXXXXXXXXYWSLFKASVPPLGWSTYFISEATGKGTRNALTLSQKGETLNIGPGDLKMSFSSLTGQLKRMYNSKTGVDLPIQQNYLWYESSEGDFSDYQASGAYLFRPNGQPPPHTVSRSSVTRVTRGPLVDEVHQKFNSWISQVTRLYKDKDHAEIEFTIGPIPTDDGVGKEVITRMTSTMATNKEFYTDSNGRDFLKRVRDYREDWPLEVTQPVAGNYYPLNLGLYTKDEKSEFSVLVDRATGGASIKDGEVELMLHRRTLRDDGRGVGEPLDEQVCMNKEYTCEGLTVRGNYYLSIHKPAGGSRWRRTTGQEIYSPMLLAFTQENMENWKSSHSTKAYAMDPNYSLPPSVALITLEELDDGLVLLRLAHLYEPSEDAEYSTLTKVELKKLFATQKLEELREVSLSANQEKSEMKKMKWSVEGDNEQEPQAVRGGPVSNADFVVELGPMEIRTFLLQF
Source text: as §1, §2

[8] = molecular target: T4, amyloglucosidase (from A. niger) (Aspergillus niger, UniProt P69328)
T4 construct: purchased Sigma-Aldrich Co
Source text: as §1, §2

T2 sequence (Q42656 16-378): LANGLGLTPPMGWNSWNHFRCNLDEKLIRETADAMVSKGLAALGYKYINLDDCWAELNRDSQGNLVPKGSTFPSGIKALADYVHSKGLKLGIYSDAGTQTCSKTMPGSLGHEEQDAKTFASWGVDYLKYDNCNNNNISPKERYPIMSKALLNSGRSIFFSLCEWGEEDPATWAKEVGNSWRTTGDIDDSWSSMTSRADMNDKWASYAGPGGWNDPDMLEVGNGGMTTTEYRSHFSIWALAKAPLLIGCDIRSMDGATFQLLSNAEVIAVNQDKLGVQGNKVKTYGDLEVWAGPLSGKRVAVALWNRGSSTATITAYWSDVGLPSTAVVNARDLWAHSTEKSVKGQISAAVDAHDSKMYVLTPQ
T4 sequence (P69328 25-640): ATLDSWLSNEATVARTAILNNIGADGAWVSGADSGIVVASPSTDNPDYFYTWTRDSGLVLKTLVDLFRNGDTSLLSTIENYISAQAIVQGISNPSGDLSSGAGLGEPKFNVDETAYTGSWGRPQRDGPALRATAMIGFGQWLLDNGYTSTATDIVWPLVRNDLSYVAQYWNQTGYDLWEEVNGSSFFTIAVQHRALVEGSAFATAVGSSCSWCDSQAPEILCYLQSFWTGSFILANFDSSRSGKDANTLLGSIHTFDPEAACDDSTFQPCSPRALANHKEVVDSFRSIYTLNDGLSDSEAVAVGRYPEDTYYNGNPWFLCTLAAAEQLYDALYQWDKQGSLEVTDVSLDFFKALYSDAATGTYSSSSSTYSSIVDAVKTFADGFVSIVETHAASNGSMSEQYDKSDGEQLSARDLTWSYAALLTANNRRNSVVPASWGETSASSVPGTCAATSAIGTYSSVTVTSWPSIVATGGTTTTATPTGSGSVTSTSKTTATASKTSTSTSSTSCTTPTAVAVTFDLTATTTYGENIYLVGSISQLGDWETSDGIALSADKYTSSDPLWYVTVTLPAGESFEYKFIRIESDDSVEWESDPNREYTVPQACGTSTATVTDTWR

Row | Compound | β-D-Mannosidase Snail, inhibition % at 100 μM [1] | β-D-Glucosidase Almond, inhibition % at 100 μM (β-D-glucosidase (almond)) | β-D-Glucuronidase Bovine Liver, inhibition % at 100 μM [2] | α-L-Rhamnosidase P. decumbens, inhibition % at 100 μM [3] | inhibition at 100 µM [4] [%] | α-D-Glucosidase Rat Intestinal Maltase, inhibition % at 100 μM [5] | inhibition at 100 µM [6] [%] | inhibition at 100 µM [7] [%] | inhibition at 100 µM [8] [%] | β-D-Mannosidase Snail, inhibition % at 1000 μM [1] | inhibition at 1000 µM [6] [%] | inhibition at 1000 µM [7] [%] | β-D-Glucosidase Almond, inhibition % at 1000 μM (β-D-glucosidase (almond)) | β-D-Glucuronidase Bovine Liver, inhibition % at 1000 μM [2] | α-L-Rhamnosidase P. decumbens, inhibition % at 1000 μM [3] | inhibition at 1000 µM [8] [%] | α-D-Glucosidase Rat Intestinal Maltase, inhibition % at 1000 μM [5] | further results
1 | N[C@@H](Cc1ccc(B(O)O)cc1)C(=O)O [BPA, 4-borono-L-phenylalanine, reference compound] | ^c NI ^d (2.1%) | ^c NI ^d (0%) | ^c NI ^d (7.4%) | ^c NI ^d (0%) | 10.9 | ^c NI ^d (0%) | – | – | – | – | – | – | – | – | – | – | – | –
2 | CC1(C)O[C@H]2O[C@H]3[C@@H]([C@H]2O1)N(Cc1ccccc1)C[C@H]3O [Compound 3, N-Benzyl-3,6-dideoxy-3,6-imino-1,2-O-isopropylidene-α-D-gulofuranose] | ^c NI ^d (2.7%) | ^c NI ^d (0%) | ^c NI ^d (0%) | ^c NI ^d (0.5%) | 26.1 | ^c NI ^d (0%) | 9.5 | 0.9 | 0 | – | – | – | – | – | – | – | – | –
3 | OC1O[C@@H]2[C@H]([C@H]1O)N(Cc1ccccc1)C[C@H]2O (stereo partly drawn) [Compound 4, N-Benzyl-3,6-dideoxy-3,6-imino-D-gulofuranose] | – | – | – | – | – | – | – | – | – | ^a NI ^b (1.0%) | 1.8 | 7.5 | ^a NI ^b (27.4%) | ^a NI ^b (7.0%) | ^a NI ^b (0%) | 0.2 | ^a NI ^b (22.4%) | –
4 | OC[C@H](O)[C@@H]1[C@H](O)[C@H](O)CN1Cc1ccccc1 [Compound 5, N-Benzyl-1,4-dideoxy-1,4-imino-L-gulitol] | ^c NI ^d (6.9%) | ^c NI ^d (0%) | ^c NI ^d (3.7%) | ^c NI ^d (1.5%) | 0 | ^c NI ^d (12.9%) | 1.5 | 4.4 | 2.1 | – | – | – | – | – | – | – | – | –
5 | N[C@@H](Cc1ccc(B(O)O)cc1)C(=O)O [^10B-BPA, reference compound] | ^c NI ^d (0.3%) | ^c NI ^d (0%) | ^c NI ^d (0%) | ^c NI ^d (0%) | – | ^c NI ^d (0%) | – | – | – | – | – | – | – | – | – | – | – | α-D-Galactosidase Coffee Beans, inhibition % at 100 μM ([6]; 100 μM): ^c NI ^d (1.2%); α-D-Mannosidase Jack Bean, inhibition % at 100 μM ([7]; 100 μM): ^c NI ^d (0%); β-D-Galactosidase Bovine Liver, inhibition % at 100 μM ([4]; 100 μM): ^c NI ^d (0%); Amyloglucosidase A. niger, inhibition % at 100 μM ([8]; 100 μM): ^c NI ^d (0%)
6 | CC1(C)O[C@H]2O[C@H]3[C@@H]([C@H]2O1)N(Cc1ccc(B2OC(C)(C)C(C)(C)O2)cc1)C[C@H]3O [para 6, N-(4-Methylphenylboronic acid pinacol ester)-3,6-dideoxy-3,6-imino-1,2-O-isopropylidene-α-D-gulofuranose] | ^c NI ^d (0%) | ^c NI ^d (0%) | ^c NI ^d (0%) | ^c NI ^d (1.4%) | 22.3 | ^c NI ^d (0%) | 1.6 | 0 | 0 | – | – | – | – | – | – | – | – | –
7 | OB(O)c1ccc(CN2CC(O)C3OC(O)C(O)C32)cc1 [para 7, N-(4-Methylphenylboronic acid)-3,6-dideoxy-3,6-imino-D-gulofuranose] | – | – | – | – | – | – | – | – | – | ^a NI ^b (4.1%) | 0 | 0 | ^a NI ^b (43.6%) | ^a NI ^b (3.5%) | ^a NI ^b (15.8%) | 2.7 | ^a NI ^b (0%) | –
8 | OC[C@H](O)[C@@H]1[C@H](O)[C@H](O)CN1Cc1ccc(B(O)O)cc1 [para 8, N-(4-Methylphenylboronic acid)-1,4-dideoxy-1,4-imino-L-gulitol] | – | – | – | – | – | – | – | – | – | ^a NI ^b (6.9%) | 1.4 | 0 | ^a NI ^b (28%) | ^a NI ^b (6.0%) | ^a NI ^b (26.3%) | 3.6 | ^a NI ^b (10.5%) | –
9 | borocaptate sodium [BSH, reference compound] | – | – | – | – | – | – | – | – | – | ^a NI ^b (19.2%) | – | – | ^a NI ^b (0%) | ^a NI ^b (19.6%) | ^a NI ^b (0.2%) | – | ^a NI ^b (0%) | α-D-Galactosidase Coffee Beans, inhibition % at 1000 μM ([6]; 1000 μM): ^a NI ^b (12.3%); α-D-Mannosidase Jack Bean, inhibition % at 1000 μM ([7]; 1000 μM): ^a NI ^b (7.9%); β-D-Galactosidase Bovine Liver, inhibition % at 1000 μM ([4]; 1000 μM): ^a NI ^b (0%); Amyloglucosidase A. niger, inhibition % at 1000 μM ([8]; 1000 μM): ^a NI ^b (0%)
